Consider five compounds from ChEMBL document CHEMBL1155087, “Discovery of novel hydroxy-thiazoles as HIF-alpha prolyl hydroxylase inhibitors: SAR, synthesis, and modeling evaluation” (Bioorg Med Chem Lett, 2008).

This experiment deals with Egl nine homolog 1 (Homo sapiens, UniProt Q9GZT9). The experiment is described as follows: Inhibition of human PHD2 assessed as hydroxylation of Pro564 in human HIF-1alpha by TR-FRET assay.

Molecules are shown by their SMILES. A value given as a limit tells only on which side of the number the result lay.

Chain of Egl nine homolog 1 (Q9GZT9 whole entry): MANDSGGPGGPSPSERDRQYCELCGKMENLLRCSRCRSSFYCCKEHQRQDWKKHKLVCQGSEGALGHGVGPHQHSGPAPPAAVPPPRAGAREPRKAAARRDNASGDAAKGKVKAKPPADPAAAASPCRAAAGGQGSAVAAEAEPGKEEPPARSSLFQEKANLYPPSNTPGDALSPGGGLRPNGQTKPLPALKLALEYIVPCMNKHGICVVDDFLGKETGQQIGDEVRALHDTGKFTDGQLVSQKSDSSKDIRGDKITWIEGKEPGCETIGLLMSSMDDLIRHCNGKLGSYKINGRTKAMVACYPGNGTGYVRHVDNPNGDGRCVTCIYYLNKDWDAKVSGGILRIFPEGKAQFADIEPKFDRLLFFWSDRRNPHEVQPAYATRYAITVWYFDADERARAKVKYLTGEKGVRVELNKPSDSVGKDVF

In the case of `CCOC(=O)Cc1csc(NC(=O)CS(=O)(=O)c2ccccc2)n1`, the IC50 was over 40 µM.

Take `CCOC(=O)Cc1cs/c(=N/C(=O)CS(=O)(=O)c2ccccc2)n1O`: the IC50 was over 40 µM.

Turning to `CC(C)(C(=O)O)c1cs/c(=N/C(=O)CS(=O)(=O)c2ccccc2)n1O`, the IC50 was over 40 µM.

Take `O=C(O)Cc1cs/c(=N/C(=O)CCc2ccccc2)n1O`: the IC50 was over 40 µM.

For the compound `O=C(O)Cc1csc(NC(=O)CS(=O)(=O)c2ccccc2)n1`, the IC50 was over 40 µM.
